Consider six substances from publication PMC4726324, “Rational steering of insulin binding specificity by intra-chain chemical crosslinking” (Scientific Reports, 2016).

For this data set the following is noted: triazole bond.
Where [1] appears, read: the molecule shown is the open-chain precursor, 17-membered ring, CuSO4/ascorbic acid, H2O/tBuOH 2:1, 0.08 mM, 25.0 °C.

Where two headings read alike, the source gives them in different places.

“H-Gly-Gly-Phe-Nva(δN3)-Thr-Pro-Prg-Thr-OH?” had a ring closure, yield after HPLC under setting [1] of 36%.

Substance “H-Gly-Phe-Phe-Prg-Thr-Pro-Nva(δN3)-Thr-OH?” displayed a ring closure, yield after HPLC under setting [1] of 45%.

With “H-Gly-Phe-Phe-Tyr-Nva(δN3)-Pro-Prg-Thr-OH?”, for the setting “the molecule shown is the open-chain precursor, 14-membered ring, CuSO4/ascorbic acid, H2O/tBuOH 2:1, 25.0 °C”, the ring closure, yield after HPLC was found to be 37%.

In the case of “H-Gly-Gly-Phe-Tyr-Nva(δN3)-Pro-Prg-Thr-OH?”, the ring closure, yield after HPLC (the molecule shown is the open-chain precursor, 14-membered ring, CuSO4/ascorbic acid, H2O/tBuOH 2:1, 0.08 mM, 25.0 °C) amounted to 52%.

Turning to “cyclo[GB23-G-F-(NMe)A-Nva(δN3)-P-Prg-TB30]”, the ring closure, yield after HPLC (14-membered ring, Cu(I)/TBTA) came to 49%.

The substance “H-Gly-Phe-Phe-Nva(δN3)-Thr-Pro-Prg-Thr-OH” came in with a ring closure, yield after HPLC under setting [1] of 40%.
